Experimental data published in publication PMC11649784, “Re-design and evaluation of diclofenac-based carborane-substituted prodrugs and their anti-cancer potential” (Scientific Reports, 2024).

Key:
[1] = tested on: MC38 cells; assay: MTT viability assay, MC38; assay type: cell-based, murine; conditions: 72 h, mean±SD, read-out: IC50 [μM] (n = 3) MC38 MTT
Description: (§1) In a preliminary test, the stability of all compounds dissolved in the cell medium (c = 100 μM, T = [drawing 47] ) for 72 h was validated by HPLC (see Supporting Information). Cell lines were incubated with the respective compounds in a concentration range of 1.56–100 μM for 72 h, and cell viability was measured using 3-(4,5-dimethylthiazol-2-yl)-2,5-diphenyltetrazolium bromide (MTT) and crystal violet (CV) assays. […] As MTT tests gave inconsistent results, possibly due to interference of the compound with mitochondrial respiration, for the further evaluation only the CV results are considered[97],[98].
(§2) The biological study was performed on a murine colon adenocarcinoma cell line (MC38), two human colorectal carcinoma cell lines (HCT116 and HT29), and a human fetal lung fibroblast cell line (MRC-5). All cell lines are commercially available and were obtained from the American Type Culture Collection (ATCC). The human cell lines were kept in HEPES-buffered RPMI-1640 medium supplemented with 10 [drawing 141] heat-inactivated FCS, 2 mM L-glutamine, 0.01 [drawing 142] sodium pyruvate, penicillin (100 units mL^−1), and, streptomycin ( [drawing 143] mL^-1). The MC38 cell line was maintained in DMEM medium additionally supplemented with 1 [drawing 144] non-essential amino acids. Cells were grown at [drawing 145] in a humidified atmosphere with 5 [drawing 146] [drawing 147] . Peritoneal exudate cells (PECs) were isolated from healthy C57BL/6 mice (males, n = 3, 3 months old, weight 22–25 g) by performing an ice-cold PBS peritoneal lavage. Mice were sacrificed by cervical dislocation. Cells were cultivated for 4 h when nonadherent population was removed by washing in PBS, and additionally cultivated overnight in HEPES-buffered RPMI-1640 medium supplemented with 5 [drawing 148] heat-inactivated FCS before treatment with experimental drugs. Animal handling and protocol for isolation of PECs were performed according to European Union rules, and the ARRIVE guidelines 2.0.
(§3) For the viability tests, MC38, HCT116, and HT29 cells were seeded in 96-well plates at a density of 2 [drawing 149] 103, 5 [drawing 150] 103, and 6 [drawing 151] 10^3 cells/well, respectively. To determine whether the drug affected the viability of healthy, non-malignant cells, MRC-5 and PECs were seeded in 96-well plates at a density of 8 [drawing 152] 103 and 2 [drawing 153] 10^5 cells/well, respectively. For the flow cytometric analyses, MC38 cells were seeded in 6-well plates at 5 [drawing 154] 10^4 cells/well. For morphological assessment of nuclei and the detection of autophagy, MC38 cells were seeded in 2-well chamber slides at 1.5 [drawing 155] 10^4 cells/well.
(§4) After 72 h, cell viability was determined using MTT and CV tests. First, the supernatant from the wells was discarded and the cells were incubated with an MTT solution (0.5 mg mL^−1). After half an hour, the purple formazan crystals formed were dissolved in DMSO. For CV staining of the cells, the cells were fixed with 4 [drawing 157] PFA for 10 min and then stained with a 0.02 [drawing 158] CV solution for 15 min, all at room temperature (RT). The cells were then washed with tap water, air-dried and the dye was dissolved in 33 [drawing 159] acetic acid. For both viability tests, the absorbance of the developed colors was measured using an automated microplate reader at 570 nm with a reference wavelength of 670 nm. The results were expressed as a percentage of the control values of the untreated cells, which were arbitrarily set at 100 [drawing 160] . IC50 values, defined as 50 [drawing 161] inhibitory concentration, were calculated using a four-parameter logistic function and presented as mean±SD. All biological experiments were performed in triplicates. To evaluate the nature of the detected autophagy, a combined treatment with compound 3 and the autophagy inhibitors chloroquine (Chlq) and 3-methyladenine (3-MA) was carried out. […] After 72 h, cell viability was determined by CV assay.

[2] = tested on: HT29 cells; assay: MTT viability assay, HT29; assay type: cell-based, human; conditions: 72 h, mean±SD, read-out: IC50 [μM] (n = 3) HT29 MTT
Description: as §1, §2, §3, §4

[3] = tested on: MC38 cells; assay: Crystal violet (CV) viability assay, MC38; assay type: cell-based, murine; conditions: 72 h, mean±SD, read-out: IC50 [μM] (n = 3) MC38 CV
Description: as §1, §2, §3, §4

[4] = tested on: MC38, HCT116, and HT29; assay: Viability assays, summary over the three cancer cell lines; assay type: cell-based; conditions: 72 h; for effect on cell viability: concentrations up to 100 μM
Description: as §1, §4

[5] = tested on: HT29 cells; assay: Crystal violet (CV) viability assay, HT29; assay type: cell-based, human; conditions: 72 h, mean±SD, read-out: IC50 [μM] (n = 3) HT29 CV
Description: as §1, §2, §3, §4

[6] = tested on: HCT116 cells; assay: Crystal violet (CV) viability assay, HCT116; assay type: cell-based, human; conditions: 72 h, mean±SD, read-out: IC50 [μM] (n = 3) HCT116 CV
Description: as §1, §2, §3, §4

[7] = Hydrolysis stability of the lactam in solution; assay type: physicochemical; conditions: several pH-levels, acids, bases, temperatures and solvents
Text: To estimate the functionality as a prodrug and the stability of the oxindoles, we investigated the behavior in solution at several pH-levels, with different acids, bases, temperatures and solvents (see Supporting Information). […] The alkaline hydrolysis was successful with CsOH in a degassed 1:3 water-ethanol mixture at [drawing 29] , while acidic hydrolysis happened at [drawing 30] in 40% aqueous sulfuric acid with 2% acetic acid. Upon attempted isolation however, the lactam was re-formed within minutes as observed by [drawing 31] H and ^11B{ [drawing 32] H} NMR spectroscopy (see Supporting Information). […] The reclosing to the oxindole ring might be attributed to an increased nucleophilicity of the amino nitrogen atom stemming from its association to the carborane cluster via a cluster boron atom. This is supported by density functional theory (DFT) calculations (see Supporting Information).

[8] = tested on: HCT116 cells; assay: MTT viability assay, HCT116; assay type: cell-based, human; conditions: 72 h, mean±SD, read-out: IC50 [μM] (n = 3) HCT116 MTT
Description: as §1, §2, §3, §4

[9] = molecular target: T1, human recombinant COX-2 (Homo sapiens, UniProt P35354); assay: COX Fluorescent Inhibitor Screening Assay, COX-2; assay type: biochemical; conditions: for COX inhibition, in words: in vitro COX assay, COX-1 and COX-2
T1 construct: purchased Cayman Chemical Company, Ann Arbor, MI, USA
T1 sequence (P35354 18-604): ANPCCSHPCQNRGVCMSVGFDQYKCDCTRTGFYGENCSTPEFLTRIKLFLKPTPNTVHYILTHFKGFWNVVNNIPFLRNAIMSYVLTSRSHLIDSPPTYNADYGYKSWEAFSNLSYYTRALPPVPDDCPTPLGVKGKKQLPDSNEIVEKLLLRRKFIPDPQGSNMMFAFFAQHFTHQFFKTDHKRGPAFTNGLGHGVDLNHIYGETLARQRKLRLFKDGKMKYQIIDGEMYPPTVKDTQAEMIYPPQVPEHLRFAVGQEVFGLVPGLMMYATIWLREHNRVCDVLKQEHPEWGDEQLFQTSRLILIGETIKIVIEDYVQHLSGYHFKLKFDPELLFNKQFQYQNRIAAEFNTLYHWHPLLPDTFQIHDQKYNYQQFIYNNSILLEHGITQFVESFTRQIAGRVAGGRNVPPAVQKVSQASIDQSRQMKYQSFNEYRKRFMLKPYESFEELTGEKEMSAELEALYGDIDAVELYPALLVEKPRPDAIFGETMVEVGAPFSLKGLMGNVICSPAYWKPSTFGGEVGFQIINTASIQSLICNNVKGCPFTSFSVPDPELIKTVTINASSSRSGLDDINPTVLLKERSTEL
Description: The COX inhibition activity against ovine COX-1 and human recombinant COX-2 was determined using the COX Fluorescent Inhibitor Screening Assay Kit (Cayman Chemical Company, Ann Arbor, MI, USA) according to the manufacturer’s instructions as reported.

[10] = tested on: MCF7, MiaPaCa-2, KB, HuTu80, L132, B16F10 and Molt4 cancer cells; set-up: method as in doi:10.1007/s00044-012-0309-2; conditions: cited from earlier work
[11] = buffer solutions at pH 1.2 and pH 7.4 and human serum ref 36, 43; cited from earlier work
[12] = tested on: Hep-G2; conditions: cited from earlier work
[13] = cited from earlier work
[14] = in vivo ref 43, 44; cited from earlier work

Compound | IC50 [1] | IC50 [2] | IC50 [3] | effect on cell viability [4] | IC50 [5] | IC50 [6] | IC50 [8] | %Inh. @ 100 μM (n = 2) COX-2 [9] | IC50 ([1]; Mus musculus, MC-38) | IC50 ([2]; Homo sapiens, HT-29) | IC50 ([3]; Mus musculus, MC-38) | IC50 ([5]; Homo sapiens, HT-29) | IC50 ([6]; Homo sapiens, HCT-116) | COX inhibition, in words [9] | IC50 ([8]; Homo sapiens, HCT-116) | also measured
1-[2-(1,12-dicarba-closo-dodecaboranyl)]-1,3-dihydro-2H-indolin-2-one [p1] | > 100 µM | > 100 µM | > 100 µM | no effect on cell viability | > 100 µM | > 100 µM | > 100 µM | – | – | – | – | – | – | – | – | stability of the lactam towards hydrolysis [7]: extraordinarily stable towards hydrolysis
1-[9-(1,2-dicarba-closo-dodecaboranyl)]-1,3-dihydro-2H-indolin-2-one [o1] | > 100 µM | > 100 µM | > 100 µM | no effect on cell viability | > 100 µM | > 100 µM | > 100 µM | 14% | – | – | – | – | – | – | – | –
1-[9-(1,7-dicarba-closo-dodecaboranyl)]-1,3-dihydro-2H-indolin-2-one [m1] | > 100 µM | > 100 µM | > 100 µM | no effect on cell viability | > 100 µM | > 100 µM | > 100 µM | 19% | – | – | – | – | – | – | – | –
O=C1Cc2ccccc2N1c1c(Cl)cccc1Cl [CCF, 1-(2,6-dichlorophenyl)-1,3-dihydro-2H-indolin-2-one, reference compound] | – | – | – | – | – | – | – | – | 32.6 ± 2.7 µM | 77.7 ± 5.5 µM | 75.1 ± 3.8 µM | 74.4 ± 4.8 µM | 73.5 ± 3.9 µM | no inhibition at all | 46.7 ± 2.4 µM | effect in initial in vitro tests on cancer cells [10]: no effect; stability towards hydrolysis [11]: High stability towards hydrolysis; IC50 ([4]; CV): ~74 µM; IC50 [12]: 24.5 ± 1.11 µM; gastrotoxicity [13]: without causing gastrotoxicity; inhibition at 100 µM ([9]; read-out: %Inh. @ 100 μM (n = 2) COX-2): 5%; in vivo conversion to open-chain diclofenac [14]: hydrolysis of the lactam to form the open-chain diclofenac
O=C(O)Cc1ccccc1Nc1c(Cl)cccc1Cl [DCF, diclofenac] | – | – | – | no effect on cell viability | – | – | – | – | > 100 µM | > 100 µM | > 100 µM | > 100 µM | > 100 µM | – | > 100 µM | –
Sodium 1-[2-(7,8-dicarba-nido-undecaborate)]-1,3-dihydro-2H-indolin-2-one [compound 2] | > 100 µM | > 100 µM | > 100 µM | no effect on cell viability | > 100 µM | > 100 µM | > 100 µM | 56% | – | – | – | – | – | moderately active COX-inhibitors | – | IC50 ([9]; absolute IC50, 0.1 to 100 μM in duplicate, 95% CI in brackets): 58.5 µM
